The source of these data is ChEMBL document CHEMBL1141821, “Bioactive sesquiterpenes from a Taiwanese marine sponge Parahigginsia sp” (J Nat Prod, 1999).

Structures are written as SMILES. In brackets after ≈: the same amount, converted by molar mass.

Format in all cases: functional, cell-based
One assay concerns A549. Put plainly: Cytotoxicity against human A549 cells after 6 days by MTT assay. As to conditions: A549, 144 h.
The nature of assay [1]: Cytotoxicity against human KB16 cells after 3 days by MTT assay. The settings on record: KB16, 72 h. Background: Tetrazolium dyes change colour on reduction, which living cells bring about.
For a further assay, the system named is P388. Nature of the assay: Cytotoxicity against mouse P388 cells after 3 days by MTT assay. As to conditions: P388, 72 h.
The subject of the next assay is HT-29. Put plainly: Cytotoxicity against human HT-29 cells after 6 days by MTT assay. The settings on record: HT-29, 144 h.

What is called IC50 is the concentration at which inhibition is half-maximal. Higher therefore signals lower potency. Consider `Cc1ccc(C(C)CC(O)CC(C)C)c(O)c1` (stereo not drawn) [PARAHIGGINOL A], for which the IC50 (in the assay with A549; in assay [1]; with P388; with HT-29) was greater than 50 µg/mL throughout.

In the case of `CC(C)=C/C=C/C(C)c1ccc(C=O)c(O)c1O` (stereo not drawn) [PARAHIGGINOL D], the IC50 in the assay with A549 worked out at 3.8 µg/mL (≈ 15.4 µM); in assay [1] it was 7.2 µg/mL (≈ 29.2 µM); with P388, 2.9 µg/mL (≈ 11.8 µM); in the assay on HT-29, 3.3 µg/mL (≈ 13.4 µM).

Regarding `COc1cc(C(=O)O)ccc1C(C)/C=C/C=C(C)C` (stereo not drawn) [PARAHIGGINIC ACID], the IC50 was 3.9 µg/mL (≈ 15 µM) in the assay on A549, 4.8 µg/mL (≈ 18.4 µM) in assay [1], 1 µg/mL (≈ 3.84 µM) in the assay with P388 and 6 µg/mL (≈ 23 µM) in the assay on HT-29.

Turning to `CC(=O)OC(CC(C)C)CC(C)c1ccc(C=O)cc1O` (stereo not drawn) [PARAHIGGINOL B], the IC50 in the assay with A549 came to 10 µg/mL (≈ 34.2 µM); in assay [1], 4.9 µg/mL (≈ 16.8 µM); in the assay with P388 it was 3 µg/mL (≈ 10.3 µM); in the assay on HT-29 it was 3.5 µg/mL (≈ 12 µM).

Take `CC(C)=CCC[C@H](C)c1ccc(C)cc1O`: the IC50 turned out to be 8.3 µg/mL (≈ 38 µM) in assay [1], 0.1 µg/mL (≈ 0.458 µM) in the assay with P388 and 8.1 µg/mL (≈ 37.1 µM) with HT-29.

Turning to `CC(=O)OC(CC(C)C)CC(C)c1ccc(C)cc1O` (stereo not drawn) [PARAHIGGINOL C], the IC50 stood at 2.8 µg/mL (≈ 10.1 µM) in the assay on A549, 3.9 µg/mL (≈ 14 µM) in assay [1], 2.5 µg/mL (≈ 8.98 µM) in the assay with P388 and 2.6 µg/mL (≈ 9.34 µM) with HT-29.
